Results published in US4626271A, “Cyanobacterin herbicide” (priority 1985, dated 1986).
Several values for one entry are separate records, joined by “and”; a condition that tells them apart may be missing. Identical values can stand only once.

Columns and labels:
[1] = tested on: cyanobacterial spheroplast system; assay: Activity in a cyanobacterial spheroplast system; format: cell-based
Source text: (§1) Synthetic cyanobacterin such as the racemic mixture prepared by Jong T. T. et al in J. Org.

[2] = tested on: whole cell growth; assay: Whole cell growth measurements, long term studies; format: cell-based
Source text: as §1

[3] = tested on: cell growth; assay: Biological activity / cell growth of the anhydro analog; format: cell-based
Source text: The cyanobacterin used in this invention may be obtained from Scytonema hofmanni (UTEX 2349 University of Texas Collection, Austin, Tex.) cells. Cyanobacterin is a diaryl substituted gamma-ylidene, gamma-butyro lactone with a chlorine substituent on one of the aromatic rings. […] This compound results from dehydration of the parent compound: [drawing 1]
It has been postulated by the inventor that a hydrophilic constituent on the lactone ring is crucial to the activity of cyanobacterin and may be involved in protein binding.

[4] = tested on: Rumex crispus; assay: Spray treatment of curled dock; format: in vivo; conditions: for treated plant dry weight: fifteenth day
Procedure: (§2) 10 mg of cyanobacterin dissolved in lml. of ethyl ether was mixed with 0.1 ml of the Science "Sticker" of Science Products, Co., which contains about 77% Triton B-1956 brand surfactant. 10 ml of water was added and mixed. After mixing for about 30 minutes to allow the ether to evaporate, the composition was ready to apply to plants.
(§3) A variety of green plants were treated with a cyanobacterin solution prepared in accordance with Example I above. An atomizer was used to spray the plants with a fine spray. Before placing the fluid into an atomizer, the solution was measured and then remeasured after application on the plants.
(§4) A control solution of 0.1 ml of sticker-ether in 10 ml of distilled water was applied to the control plants. These plants were treated in the same manner as in the cyanobacterin application and measured in the same way. Plants were cut off at the soil line and dried for 16 hours at 110° C.
Rumex crispus was grown at a rate of 10 plants or more per pot. A total of 5 control pots were used and 5 pots were treated with the cyanobacterin containing compound of Example I. Seven days after germination the plants were treated with 1.45 milligrams of cyanobacterin. […] By the 9th day, half the plants were dead and half were chlorotic. […] The control plant dry weight at the fifteenth day was 453.3 milligrams and the cyanobacterin dry weight was 93.1 milligrams.
Curled dock plants were also treated with 0.5 milligrams of cyanobacterin. The plants were treated with the cyanobacterin compound 8 days after germination. On the 7th day after treatment, many of the plants were dead and others were chlorotic.

[5] = tested on: Polygonium convolvulus; assay: Spray treatment of wild buckwheat; format: in vivo; conditions: for treated plant dry weight: fifteenth day
Procedure: as §2, §3, §4
Polygonium convolvulus plants were raised at a rate of over 10 plants per pot. Five control pots were used and 5 pots were treated with the cyanobacterin containing compound of the invention.
The first plants treated were treated 2 days after germination with 0.29 milligrams of the cyanobacterin. The control plant dry weight at the fifteenth day was 92.4 milligrams and the cyanobacterin treated dry weight was 59.1 milligrams. The second group of plants were treated 4 days after germination with 0.5 milligrams of cyanobacterin.

[6] = tested on: Lemna gibba, L.minor and Lemna 6746 (Duckweed); assay: Use against aquatic plants (frond multiplication, toxicity); format: in vivo
Procedure: The effect of cyanobacterin was initially tested on the aquatic angiosperms, Lemna gibba, L.minor and Lemna 6746 (Duckweed). Cyanobacterin stopped frond multiplication at a minimum dose of 0.5 μg per ml of growth medium (1.1 μM). The plants recovered after about 7-12 days. Presumably, this is due to degradation of the cyanobacterin over time which drops the dosage below the minimum. At a concentration of 1.0 μg/ml (2.3 μM), cyanobacterin is toxic to Lemna. The plants generally appear normal for 10-15 days after which the roots fall off and the leaves become chlorotic.

[7] = Herbicidal effect, amount relative to plant dry weight; format: in vivo; conditions: by dry weight
Source text: The composition may be formulated from high purity cyanobacterin or from crude extracts obtained from the blue-green algae since high purity is not required. […] Additionally, the composition may be formulated from a synthetic cyanobacterin, such as the racemic mixture described by T. T. Jong et al, "Total synthesis and X-ray structure determination of cyanobacterin", J. Org. Chem. 49:735-736(1984).

[8] = tested on: Zea Mays of the hybrid variety Goldencross Bantam; assay: Spray treatment of sweet corn; format: in vivo; conditions: 1.0 milligrams, Example I composition
Procedure: as §2, §3, §4
Zea Mays of the hybrid variety Goldencross Bantam was tested with one plant per pot. A total of nine control plants were used and 14 plants were treated with the cyanobacterin composition of Example I. The plants were treated once, 8 days after germination. After growing for a total of 15 days after treatment, the plants were cut off at the soil line and the dry weight was determined. A control plant dry weight was 227.4 milligrams and the cyanobacterin treated plant dry weight was 59.4 milligrams. The amount of cyanobacterin utilized was 1.0 milligrams.

[9] = tested on: Pisum sativum, var. Little Marvel; assay: Spray treatment of pea; format: in vivo
Procedure: as §2, §3, §4
Pisum sativum, var. Little Marvel, plants were tested at a rate of 1 and 2 plants per pot. With one plant per pot, a total of nine control plants were used and 12 cyanobacterin treated plants were utilized. With 2 plants per pot, one control plant was utilized and 2 cyanobacterin treated plants were utilized. The plants were treated 8 and 6 days after germination respectively, with the cyanobacterin compound of Example I. The pots containing 1 plant per pot were treated with 1.5 milligrams and the pots containing 2 plants were treated with 0.6 milligrams of the cyanobacterin compound. The control plant dry weight of a single plant per pot plants after the fifteen days of growth was 363.8 milligrams and 194.9 milligrams for the cyanobacterin treated plant dry weight.

[10] = tested on: photosystem II; assay: Hill reaction / oxygen evolution in pea chloroplasts; format: biochemical
Source text: It is theorized that cyanobacterin acts on green plants by specifically binding to some component of the photosynthetic electron transport system.
(§5) Cyanobacterin, when applied to the soil had no effect. […] Also, it may not be transported through the root vascular system. The Hill reaction is inhibited by cyanobacterin as shown by the use of photosynthetically active pea chloroplasts.

[11] = tested on: Setaria viridis; assay: Spray treatment of green foxtail; format: in vivo; conditions: for treated plant dry weight: fifteenth day
Procedure: as §2, §3, §4
Setaria viridis plants were grown at a rate of over 10 per pot. A total of 5 control pots were used and 5 cyanobacterin treated pots were utilized. Two concentrations of cyanobacterin were utilized. In the first group 0.5 milligrams of cyanobacterin was applied to plants 8 days after germination. The control plant dry weight on the fifteenth day after cutting was 365.8 milligrams and the cyanobacterin treated plant dry weight was 176.3 milligrams. A second group of plants was treated with 2.8 milligrams of cyanobacterin 7 days after germination.

[12] = Hydrophobicity; format: physicochemical
[13] = tested on: Avena fatua; assay: Spray treatment of wild oats; format: in vivo
Procedure: as §2, §3, §4
Avena fatua plants were grown at a rate of over 10 plants per pot. A total of 5 control pots were used and 5 cyanobacterin treated pots were utilized.
Three separate concentrations of cyanobacterin were utilized. In group 1 the plants were treated 3 days after germination with 0.44 milligrams of the cyanobacterin. […] A second group were treated with 0.6 milligrams of cyanobacterin two weeks after germination. […] The third group of plants were treated with 1.05 milligrams of cyanobacterin 7 days after germination.

[14] = Application to the soil; format: in vivo
Source text: as §5

With COc1ccc(/C=C2\OC(=O)C(Cc3cc(Cl)c4c(c3)OCO4)C2(O)C(C)C)cc1 (racemic) [Synthetic cyanobacterin] the “activity relative to cyanobacterin” value [1] was “about half the activity of cyanobacterin” and the “activity relative to cyanobacterin” value [2] was “the same activity”.
In the case of COc1ccc(/C=C2\OC(=O)C(Cc3cc(Cl)c4c(c3)OCO4)=C2C(C)C)cc1 [anhydrocyanobacterin], the biological activity [3] is reported as “no biological activity” and the “effect on cell growth” value [3] is reported as “no effect on cell growth”.
In the case of COc1ccc(/C=C2\OC(=O)C(Cc3cc(Cl)c4c(c3)OCO4)C2(O)C(C)C)cc1 (stereo not drawn) [cyanobacterin], the “plant condition by the 15th day” value ([4]; 0.5 milligrams) is reported as “half of the plants were dead, one-quarter were chlorotic and one-quarter were large, green and healthy like the control”, the “treated plant dry weight” value ([4]; 0.5 milligrams, 8 days after germination, control 451.9 milligrams) is reported as 239.1 milligrams and the “plant condition by the 15th day” value ([4]; 1.45 milligrams) is reported as “all were dead except for a few”. The “treated plant dry weight” value ([4]; 1.45 milligrams, seven days after germination, control 453.3 milligrams) was 93.1 milligrams, the “treated plant dry weight” value ([5]; 0.29 milligrams, 2 days after germination, control 92.4 milligrams) was 59.1 milligrams and the “treated plant dry weight” value ([5]; 0.5 milligrams, 4 days after germination, control 157.8 milligrams) was 59.1 milligrams. The “plant condition by the 15th day” value ([5]; either concentration (0.29 or 0.5 milligrams)) was “Only a few of the cyanobacterin treated plants were dead”, the “plant condition by 30 days” value ([6]; 1.0 μg/ml or greater, purified cyanobacterin) was “most plants treated with 1.0 μg/ml or greater concentrations of purified cyanobacterin were dead” and the “time until plants recovered” value ([6]; at minimum dose 0.5 μg per ml) was 7 to 12 days. The minimal effective concentration ([6]; in growth medium, read-out: minimum dose that stopped frond multiplication) was 0.5 µg/mL and 1.1 µM, the “amount effective as a herbicide relative to plant dry weight” value [7] was “one part of the cyanobacterin to 450 parts of the plant” and the “plant condition by the fifteenth day” value [8] was “dead”. For the same molecule, the “plant condition on the ninth day after treatment” value [8] was “no new growth”, the “treated plant dry weight” value ([8]; treated once 8 days after germination, 15 days after treatment, control 227.4 milligrams) was 59.4 milligrams and the “plant condition on the 15th day” value ([9]; 0.6 to 1.5 milligrams per plant) was “all of the cyanobacterin treated plants were dead”. For the same molecule, the “treated plant dry weight” value ([9]; 1 plant per pot, 1.5 milligrams, treated 8 days after germination, fifteen days of growth, control 363.8 milligrams) was 194.9 milligrams, the “treated plant dry weight” value ([9]; 2 plants per pot, 0.6 milligrams, treated 6 days after germination, control 169.8 milligrams) was 101.4 milligrams and the “electron flow from water to electron acceptors” value [10] was “inhibits electron flow”. For the same molecule, the Hill reaction ([10]; photosynthetically active pea chloroplasts) was “inhibited”, the “concentration that completely inhibits oxygen evolution” value ([10]; photosynthetically active pea chloroplasts, in the presence of DCPIP) was 110 nM and the “treated plant dry weight” value ([11]; 0.5 milligrams, 8 days after germination, control 365.8 milligrams) was 176.3 milligrams. For the same molecule, the “plant condition at approximately the 9th day after treatment” value ([11]; 0.5 or 2.8 milligrams) was “approximately half of the plants had died”, the “treated plant dry weight” value ([11]; 2.8 milligrams, 7 days after germination, control 411.7 milligrams) was 217.7 milligrams and the hydrophobicity [12] was “very hydrophobic”. For the same molecule, the “treated plant dry weight” value ([13]; 0.44 milligrams, 3 days after germination, fifteen days after treatment, control 154.6 milligrams) was 115.5 milligrams, the “plant condition at the end of the experiment” value ([13]; 0.44 to 1.05 milligrams) was “stressed but overall were still green and growing” and the “treated plant dry weight” value ([13]; 0.6 milligrams, two weeks after germination, fifteen days after treatment, control 328.5 milligrams) was 79.5 milligrams. For the same molecule, the “treated plant dry weight” value ([13]; 1.05 milligrams, 7 days after germination, fifteenth day, control 489.6 milligrams) was 155.8 milligrams and the “effect when applied to the soil” value [14] was “no effect”.
